Read-outs that look alike come from different tables or passages of the source.
Experiments:
[1] = Plasma circulation of alphaGAL replacement enzyme in mouse model of Fabry disease; assay type: in vivo; details: compared to underivatised agalsidase beta
Experimental: Via standard methods agalsidase beta (Fabrazyme®, Genzyme) is pegylated.
In a mouse model of Fabry disease at different time-points plasma samples are analysed for the presence of agalsidase beta to give reference values and at the same different time-points plasma samples are analysed for the presence of pegylated agalsidase beta.

lyso-CTH = assay: Plasma lyso-CTH concentration in mouse model of Fabry disease after enzyme; assay type: in vivo; details: compared to underivatised agalsidase beta
[2] = Partitioning of lyso-CTH in Bligh and Dyer and butanol/water extraction; assay type: physicochemical
Experimental: An optimal extraction procedure for lyso-CTH from plasma samples was established. A double extraction was carried out, first a Bligh and Dyer extraction followed by butanol extraction.

alpha-galactosidase A = target: T1, alpha-galactosidase A (Homo sapiens, UniProt P06280); assay: Inhibition of alpha-galactosidase A by lyso-CTH; assay type: biochemical
T1 sequence (P06280 32-429): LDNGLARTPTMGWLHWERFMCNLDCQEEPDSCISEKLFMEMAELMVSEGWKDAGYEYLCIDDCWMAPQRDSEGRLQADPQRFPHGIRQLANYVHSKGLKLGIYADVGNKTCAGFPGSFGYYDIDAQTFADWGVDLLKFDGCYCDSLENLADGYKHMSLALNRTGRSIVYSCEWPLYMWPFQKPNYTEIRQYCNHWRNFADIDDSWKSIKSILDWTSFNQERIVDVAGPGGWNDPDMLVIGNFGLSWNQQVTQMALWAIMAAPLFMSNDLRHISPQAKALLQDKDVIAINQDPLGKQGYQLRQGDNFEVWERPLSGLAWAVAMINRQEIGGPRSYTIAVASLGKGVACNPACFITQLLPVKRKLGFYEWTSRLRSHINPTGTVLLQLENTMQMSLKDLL

alpha-galactosidase B = target: T2, alpha-galactosidase B (Homo sapiens, UniProt P17050); assay: Inhibition of alpha-galactosidase B by lyso-CTH; assay type: biochemical
T2 sequence (P17050 18-411): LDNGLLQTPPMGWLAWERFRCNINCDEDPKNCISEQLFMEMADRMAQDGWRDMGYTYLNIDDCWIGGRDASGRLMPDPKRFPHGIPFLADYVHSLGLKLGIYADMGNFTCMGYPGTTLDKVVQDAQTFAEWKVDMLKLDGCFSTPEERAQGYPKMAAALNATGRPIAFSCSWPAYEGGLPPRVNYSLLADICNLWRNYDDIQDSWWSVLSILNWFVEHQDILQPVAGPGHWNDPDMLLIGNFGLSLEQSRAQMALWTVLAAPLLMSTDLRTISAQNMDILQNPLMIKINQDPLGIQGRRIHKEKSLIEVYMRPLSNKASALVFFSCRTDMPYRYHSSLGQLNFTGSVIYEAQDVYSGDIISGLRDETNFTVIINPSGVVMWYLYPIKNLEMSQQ

SMC-41 cell line = assay: Toxic effect in vitro: 3H thymidine incorporation and proliferation in SMC-41 cell line; assay type: cell-based; details: lyso-CTH 0.065-0.65 μM (as found in plasma of Fabry patients); for proliferation of SMC-41 (smooth muscle cell proliferation): in vitro
Experimental: The toxic effect of lyso-CTH was determined in vitro in SMC-41 cell line. ^3H thymidine incorporation (per 24 h) was determined as a function of lyso-CTH concentration.

Row | Partitioning of lyso-CTH (% of total), lower phase ([2]; Bligh and Dyer extraction) | Partitioning of lyso-CTH (% of total), upper phase ([2]; Bligh and Dyer extraction) | Partitioning of lyso-CTH (% of total), lower phase ([2]; butanol/water extraction) | Partitioning of lyso-CTH (% of total), upper phase ([2]; butanol/water extraction) | Inhibition of alpha-galactosidase A (alpha-galactosidase A) | Inhibition of alpha-galactosidase A (alpha-galactosidase A; listed as Lyso-CTH) | Inhibition of alpha-galactosidase B (alpha-galactosidase B) | Inhibition of alpha-galactosidase B (alpha-galactosidase B; listed as Lyso-CTH) | Compound | plasma circulation time [1] | concentration of lyso-CTH in the plasma samples (lyso-CTH) | 3H thymidine incorporation (per 24 h) (SMC-41 cell line; SMC-41 cell line) | proliferation of SMC-41 (smooth muscle cell proliferation) (SMC-41 cell line) | proliferation of SMC-41 (smooth muscle cell proliferation) (SMC-41 cell line; listed as Lyso-CTH)
1 |  |  |  |  |  |  |  |  | pegylated agalsidase beta: agalsidase beta (Fabrazyme, Genzyme) pegylated via standard methods | increase in plasma circulation time | significantly lower |  |  | 
2 | 10 % of total | 90 % of total | 2 % of total | 99 % of total | inhibits | potent inhibitor | inhibits | potent inhibitor | CCCCCCCCCCCCC/C=C/[C@@H](O)[C@@H](N)CO[C@@H]1O[C@H](CO)[C@@H](O[C@@H]2O[C@H](CO)[C@H](O[C@H]3O[C@H](CO)[C@H](O)[C@H](O)[C@H]3O)[C@H](O)[C@H]2O)[C@H](O)[C@H]1O [lyso-CTH, lyso-ceramide trihexosamide] |  |  | increased isotope incorporation | increased proliferation | promote in vitro smooth muscle cell proliferation
